In PubChem BioAssay (NCI):
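Each compound was tested at five concentrations against cells in 96-well plates for 48 hours. At the TGI there is no net growth.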

Experiments:
Experiment in all cases: inhibition of tumour cell growth, NCI panel, 48 h
A549 NSCLC = tested on: A549 NSCLC
CAKI-1 renal = tested on: CAKI-1 renal
EKVX NSCLC = tested on: EKVX NSCLC
MCF7 breast = tested on: MCF7 breast
RXF 393 renal = tested on: RXF 393 renal
SF-295 CNS = tested on: SF-295 CNS
SK-MEL-28 melanoma = tested on: SK-MEL-28 melanoma
SK-MEL-5 melanoma = tested on: SK-MEL-5 melanoma
SN12C renal = tested on: SN12C renal
SW-620 colon = tested on: SW-620 colon
UACC-257 melanoma = tested on: UACC-257 melanoma
UACC-62 melanoma = tested on: UACC-62 melanoma
UO-31 renal = tested on: UO-31 renal
RPMI-8226 leukemia = tested on: RPMI-8226 leukemia
SNB-19 CNS = tested on: SNB-19 CNS
MALME-3M melanoma = tested on: MALME-3M melanoma

SMILES | TGI (A549 NSCLC) [µM] | TGI (CAKI-1 renal) [µM] | TGI (EKVX NSCLC) [µM] | TGI (MCF7 breast) [µM] | TGI (RXF 393 renal) [µM] | TGI (SF-295 CNS) [µM] | TGI (SK-MEL-28 melanoma) [µM] | TGI (SK-MEL-5 melanoma) [µM] | TGI (SN12C renal) [µM] | TGI (SW-620 colon) [µM] | TGI (UACC-257 melanoma) [µM] | TGI (UACC-62 melanoma) [µM] | TGI (UO-31 renal) [µM] | TGI (RPMI-8226 leukemia) [µM] | TGI (SNB-19 CNS) [µM] | TGI (MALME-3M melanoma) [µM]
Cc1c[nH]c(C(=O)O)c1-c1ccc2c(-c3ccccc3)nc3ccccc3n12 | > 100 | > 100 | > 100 | > 100 | 55.2 | 71.1 | 76.3 | > 100 | > 100 | > 100 | > 100 | 42.5 | > 100 | – | – | –
Cc1nc2ccccc2c(=O)n1NC(=O)c1ccccc1O | > 100 | – | > 100 | > 100 | > 100 | > 100 | > 100 | > 100 | > 100 | > 100 | > 100 | > 100 | > 100 | > 100 | > 100 | –
COc1ccc([N-]/C(=N\n2c(=O)c(C)nn(C)c2=S)N(c2ccc(OC)cc2)c2nn3c(=O)c(C)n[n+](C)c3s2)cc1 | > 100 | – | > 100 | – | > 100 | > 100 | > 100 | > 100 | > 100 | > 100 | > 100 | > 100 | – | > 100 | > 100 | –
NCC(NC(=O)OCc1ccccc1)C(=O)O (centres undefined) | > 50 | > 50 | > 50 | – | – | > 50 | > 50 | > 50 | > 50 | > 50 | > 50 | > 50 | > 50 | > 50 | > 50 | > 50
C[C@@H](NC(=O)OC1C=CC2(CC1)C(=O)N(C)c1ccccc12)c1cccc2ccccc12 (some centres undefined) | > 25 | > 25 | > 25 | > 25 | – | > 25 | > 25 | > 25 | > 25 | > 25 | > 25 | > 25 | > 25 | > 25 | > 25 | –
Cc1ccc(CS(=O)(=O)C/N=c2\sc3ccccc3nc2/C=C(\O)c2ccc(Cl)cc2)cc1 | > 10 | > 10 | – | > 10 | – | > 10 | > 10 | > 10 | > 10 | > 10 | > 10 | > 10 | – | > 10 | > 10 | > 10
O=P1(Oc2ccc(Cl)cc2)OCCS1 (centres undefined) | > 100 | – | > 100 | – | > 100 | > 100 | > 100 | > 100 | > 100 | > 100 | > 100 | > 100 | > 100 | > 100 | > 100 | > 100
CC(C)OP(=O)(OC(C)C)/C(=N/N)NNc1ccc([N+](=O)[O-])cc1 | > 100 | > 100 | > 100 | – | – | – | > 100 | > 100 | > 100 | > 100 | > 100 | > 100 | > 100 | > 100 | > 100 | > 100
C=C1CC(Cn2cc(C)c(=O)[nH]c2=O)(c2ccc(-c3ccccc3)cc2)OC1=O (centres undefined) | 23 | 4.94 | 22.1 | 5.87 | – | 14.2 | 3.75 | 2.56 | 8.26 | 1.91 | 5.75 | 3.77 | 11.5 | 1.9 | 27.4 | 6.81
O=c1cc(CC(O)(C(F)(F)Cl)C(F)(F)Cl)[nH]n1-c1ccccc1 | > 100 | – | > 100 | > 100 | > 100 | > 100 | > 100 | > 100 | > 100 | > 100 | > 100 | > 100 | > 100 | > 100 | > 100 | > 100
CCOc1ccc(N=Nc2ccc3oc(=O)c(C(=O)Nc4ccc(OC)cc4)cc3c2)cc1 | > 100 | > 100 | 86.7 | – | – | > 100 | 68 | 38.8 | > 100 | > 100 | > 100 | 93.1 | 78 | > 100 | 46.6 | > 100
CC1(C)C2CCC3(OCCO3)C1C1OC12 (centres undefined) | > 100 | > 100 | > 100 | – | > 100 | > 100 | > 100 | > 100 | – | > 100 | > 100 | – | > 100 | > 100 | > 100 | > 100
OCC1OC(n2nc(-c3ccccc3)nc2-c2cnccn2)C(O)C1O (centres undefined) | > 100 | – | > 100 | > 100 | – | > 100 | > 100 | > 100 | > 100 | > 100 | > 100 | > 100 | > 100 | – | > 100 | –
CC(=O)OCC12C(OC(C)=O)C[C@@H](C)C3(CC(c4ccoc4)OC3=O)C1CCC(O)C21CO1 (some centres undefined) | > 100 | > 100 | – | > 100 | > 100 | > 100 | > 100 | > 100 | > 100 | – | > 100 | > 100 | > 100 | > 100 | > 100 | > 100
O=c1c2cc(Br)cc(Br)c2[nH]c(=S)n1-c1ccccc1 | > 100 | > 100 | > 100 | – | – | > 100 | > 100 | > 100 | > 100 | > 100 | > 100 | > 100 | > 100 | > 100 | > 100 | > 100
CN1CCN(C(=S)N(C(=O)c2ccco2)c2ccccc2)CC1 | > 100 | – | – | > 100 | > 100 | > 100 | > 100 | > 100 | > 100 | > 100 | > 100 | > 100 | > 100 | > 100 | > 100 | > 100
COP1(=O)NCc2ncccc2O1 (centres undefined) | > 100 | > 100 | > 100 | > 100 | > 100 | > 100 | > 100 | > 100 | > 100 | > 100 | > 100 | > 100 | > 100 | > 100 | > 100 | –

SMILES | TGI (A549 NSCLC) [µM] | TGI (CAKI-1 renal) [µM] | TGI (EKVX NSCLC) [µM] | TGI (MCF7 breast) [µM] | TGI (RXF 393 renal) [µM] | TGI (SF-295 CNS) [µM] | TGI (SK-MEL-28 melanoma) [µM] | TGI (SK-MEL-5 melanoma) [µM] | TGI (SN12C renal) [µM] | TGI (SW-620 colon) [µM] | TGI (UACC-257 melanoma) [µM] | TGI (UACC-62 melanoma) [µM] | TGI (UO-31 renal) [µM] | TGI (RPMI-8226 leukemia) [µM] | TGI (SNB-19 CNS) [µM] | TGI (MALME-3M melanoma) [µM]
CSc1ccc2c(cc1=O)C(NC(=O)c1ccc(OC(C)=O)cc1)CCc1cc(O)c(O)c(O)c1-2 (centres undefined) | > 100 | – | 44 | – | – | 35.3 | > 100 | 31.5 | 31.6 | 29.5 | 38.9 | 36.3 | > 100 | – | > 100 | > 100
CC(C)c1cccc(C(C)C)c1NC(=O)C(=O)C(C(=O)c1ccc2ccccc2c1)C1OC(=O)c2ccccc21 (centres undefined) | > 100 | > 100 | > 100 | – | > 100 | > 100 | > 100 | > 100 | > 100 | > 100 | > 100 | > 100 | > 100 | > 100 | > 100 | > 100
NC(=S)N1N=C2c3ccccc3CC[C@H]2[C@@H]1c1cccs1 | > 100 | – | > 100 | – | 83 | 58.1 | > 100 | – | > 100 | > 100 | > 100 | > 100 | > 100 | > 100 | > 100 | 80.2
COc1ccc(C2ON(c3ccccn3)CC=C2C)cc1 (centres undefined) | > 100 | > 100 | > 100 | – | > 100 | > 100 | > 100 | > 100 | > 100 | > 100 | > 100 | > 100 | > 100 | > 100 | > 100 | > 100
O=C(CCc1ccc(O)c(O)c1)NCCc1cc(OCc2ccccc2)cc(OCc2ccccc2)c1 | > 100 | 17.7 | 29.3 | 32.2 | 36.8 | 38.9 | 46.3 | 28.7 | 28.6 | 76.1 | > 100 | 47.4 | 12.6 | > 100 | 18 | –
Cc1c(C(=O)O)c2cc3ccccc3cc2c(=O)n1C | > 10 | – | > 10 | > 10 | > 10 | > 10 | – | – | > 10 | > 10 | > 10 | > 10 | > 10 | – | > 10 | > 10
O=C1c2nn(-c3ccccc3)nc2C(c2ccccc2)N1c1ccccc1 (centres undefined) | > 100 | > 100 | > 100 | – | – | > 100 | > 100 | > 100 | > 100 | > 100 | > 100 | > 100 | > 100 | > 100 | > 100 | > 100
CC(=O)O[C@H]1CC[C@@]2(C)C(=CC[C@@H]3[C@@H]2CC[C@]2(C)C(=N/O)/C(=C/c4ccc([N+](=O)[O-])cc4)C[C@@H]32)C1 | > 100 | 6.1 | – | – | > 100 | 20.7 | > 100 | 7.95 | 87.3 | > 100 | 1.55 | 20.5 | 26 | > 100 | 37.1 | > 100
O=C1C2CCC(C2)C12CC1(c3ccccc3)C(=O)c3ccccc3N1O2 (centres undefined) | > 100 | – | > 100 | – | > 100 | > 100 | > 100 | > 100 | > 100 | > 100 | > 100 | > 100 | > 100 | > 100 | > 100 | > 100
COc1ccc(C2=NN(c3ccccc3)C(c3cc4cc(Br)ccc4nc3Cl)C2)cc1 (centres undefined) | > 25 | > 25 | > 25 | – | > 25 | > 25 | > 25 | > 25 | > 25 | > 25 | – | – | > 25 | > 25 | > 25 | > 25
O=C(N/N=C1/C(=O)c2c3ccccc3cc3cccc1c23)c1cccc(Cl)c1 | > 100 | > 100 | – | – | > 100 | – | > 100 | > 100 | > 100 | > 100 | > 100 | > 100 | – | > 100 | > 100 | –
O=C1CC(=O)c2c(Cl)sc(Cl)c21 | > 100 | > 100 | > 100 | > 100 | 86.2 | > 100 | > 100 | > 100 | > 100 | > 100 | > 100 | > 100 | > 100 | – | – | 67.2
O=C(OCC12CC3CC(CC(C3)C1)C2)c1ccc(NCc2cc(O)ccc2O)cc1 | 12.6 | 2.06 | 9.26 | 36.8 | 3.03 | 17.7 | 3.54 | 2.9 | 18.7 | > 25.7 | 3.28 | 3.93 | 1.96 | 1.68 | 11 | –
CC(C)[Si](OC1=C(C(=O)N(C)c2ccccc2Cl)CCC1)(C(C)C)C(C)C | 32.1 | 36.5 | 31.1 | – | 35.4 | 27.6 | 39.7 | 41.2 | 31.6 | 46.9 | 43.4 | – | 29.4 | 49.6 | 30 | 34.6
CC(C)C(=O)/C=C/c1ccc(Cl)cc1 | 59.7 | – | – | – | 35.5 | 27.8 | – | 21.7 | 21.7 | 16.3 | 40.6 | 36.4 | 24.5 | 67.2 | 28.1 | –
Nc1nc(NNc2ccc(Cl)c(Cl)c2)cc(=O)[nH]1 | > 100 | – | > 100 | 72.5 | 67.5 | > 100 | > 100 | > 100 | > 100 | 61.1 | > 100 | – | > 100 | > 100 | > 100 | > 100
